According to ChEMBL document CHEMBL1201862, “PubChem BioAssay data set” (2004):
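In this assay, cells in 96-well plates receive the compound at five concentrations for 48 hours. Endpoints are linearly interpolated between the surrounding concentrations. Abbreviation: GI50, concentration required for 50% inhibition of growth.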 The source made the active and inactive calls. Rule as the data show it: active = GI50 up to about 1.1 µM and inactive = higher.

Experiments:
Assay in all cases: inhibition of tumour cell growth, NCI panel, 48 h
[1] = system: 786-0
[2] = system: A498
[3] = system: A549
[4] = system: ACHN
[5] = system: BT-549
[6] = system: CAKI-1
[7] = system: CCRF-CEM
[8] = system: COLO 205
[9] = system: DU-145
[10] = system: EKVX
[11] = system: HCC 2998
[12] = system: HCT-116
[13] = system: HCT-15
[14] = system: HL-60
[15] = system: HOP-62
[16] = system: HOP-92
[17] = system: HT-29
[18] = system: Hs-578T
[19] = system: IGROV-1
[20] = system: K562
[21] = system: KM12
[22] = system: LOX IMVI
[23] = system: MCF7
[24] = system: MDA-MB-231
[25] = system: MDA-MB-435
[26] = system: MDA-N
[27] = system: MOLT-4
[28] = system: Malme-3M
[29] = system: NCI-H226
[30] = system: NCI-H23
[31] = system: NCI-H460
[32] = system: NCI-H522
[33] = system: NCI/ADR-RES
[34] = system: OVCAR-3
[35] = system: OVCAR-4
[36] = system: OVCAR-5
[37] = system: OVCAR-8
[38] = system: PC-3
[39] = system: RPMI-8226
[40] = system: RXF 393
[41] = system: SF-268
[42] = system: SF-295
[43] = system: SF-539
[44] = system: SK-MEL-28
[45] = system: SK-MEL-5
[46] = system: SK-OV-3
[47] = system: SN12C
[48] = system: SNB-75
[49] = system: SR
[50] = system: SW-620
[51] = system: T47D
[52] = system: TK-10
[53] = system: U-251
[54] = system: UACC-257
[55] = system: UACC-62
[56] = system: UO-31
[57] = system: M14
[58] = system: SK-MEL-2
[59] = system: SNB-19

With `COc1ccc(C2=Nn3c(nc4sc5c(c4c3=O)CCCC5)SC2)cc1` the GI50 [1] was > 100 µM (inactive), the GI50 [2] was > 100 µM (inactive) and the GI50 [3] was > 100 µM (inactive). The GI50 [4] was > 100 µM (inactive), the GI50 [5] was > 100 µM (inactive) and the GI50 [6] was > 100 µM (inactive). For the same compound, the GI50 [7] was > 100 µM (inactive), the GI50 [8] was > 100 µM (inactive) and the GI50 [9] was > 100 µM (inactive). For the same compound, the GI50 [10] was > 100 µM (inactive), the GI50 [11] was > 100 µM (inactive) and the GI50 [12] was > 100 µM (inactive). For the same compound, the GI50 [13] was > 100 µM, the GI50 [14] was > 100 µM (inactive) and the GI50 [15] was 49.8 µM (inactive). For the same compound, the GI50 [16] was > 100 µM (inactive), the GI50 [17] was > 100 µM (inactive) and the GI50 [18] was 70.6 µM (inactive). The GI50 [19] was > 100 µM (inactive), the GI50 [20] was > 100 µM (inactive) and the GI50 [21] was > 100 µM (inactive). For the same compound, the GI50 [22] was > 100 µM (inactive), the GI50 [23] was > 100 µM (inactive) and the GI50 [24] was > 100 µM (inactive). The GI50 [25] was > 100 µM (inactive), the GI50 [26] was > 100 µM (inactive) and the GI50 [27] was > 100 µM (inactive). For the same compound, the GI50 [28] was > 100 µM (inactive), the GI50 [29] was > 100 µM (inactive) and the GI50 [30] was > 100 µM (inactive). The GI50 [31] was > 100 µM (inactive), the GI50 [32] was > 100 µM (inactive) and the GI50 [33] was > 100 µM (inactive). The GI50 [34] was > 100 µM (inactive), the GI50 [35] was > 100 µM (inactive) and the GI50 [36] was > 100 µM (inactive). For the same compound, the GI50 [37] was > 100 µM (inactive), the GI50 [38] was > 100 µM (inactive) and the GI50 [39] was > 100 µM (inactive). For the same compound, the GI50 [40] was > 100 µM (inactive), the GI50 [41] was > 100 µM (inactive) and the GI50 [42] was > 100 µM (inactive). For the same compound, the GI50 [43] was > 100 µM (inactive), the GI50 [44] was > 100 µM (inactive) and the GI50 [45] was > 100 µM (inactive). For the same compound, the GI50 [46] was > 100 µM (inactive), the GI50 [47] was > 100 µM (inactive) and the GI50 [48] was > 10 µM (inactive). The GI50 [49] was > 100 µM (inactive), the GI50 [50] was > 100 µM (inactive) and the GI50 [51] was > 100 µM (inactive). The GI50 [52] was 57.8 µM (inactive), the GI50 [53] was > 100 µM (inactive) and the GI50 [54] was > 100 µM (inactive). The GI50 [55] was > 100 µM (inactive) and the GI50 [56] was > 100 µM (inactive).
`C=CC(OC(C)=O)c1ccc(OC(C)=O)cc1` (centres undefined) was tested, and the GI50 [1] was 1.56 µM (inactive), the GI50 [2] was 12 µM (inactive) and the GI50 [3] was 19.8 µM (inactive). For the same compound, the GI50 [4] was 2.54 µM (inactive), the GI50 [5] was 8.93 µM (inactive) and the GI50 [6] was 4.88 µM (inactive). The GI50 [8] was 3.85 µM (inactive), the GI50 [9] was 10.4 µM (inactive) and the GI50 [10] was 13.8 µM (inactive). The GI50 [11] was 7.01 µM (inactive), the GI50 [12] was 7.05 µM (inactive) and the GI50 [13] was 8.24 µM. For the same compound, the GI50 [14] was 3.79 µM (inactive), the GI50 [15] was 3.82 µM (inactive) and the GI50 [16] was 8.47 µM (inactive). The GI50 [17] was 4.8 µM (inactive), the GI50 [18] was 2.37 µM (inactive) and the GI50 [19] was 15.7 µM (inactive). The GI50 [20] was 20 µM (inactive), the GI50 [21] was 5.57 µM (inactive) and the GI50 [22] was 2.88 µM (inactive). For the same compound, the GI50 [57] was 10.5 µM (inactive), the GI50 [23] was 11.4 µM (inactive) and the GI50 [24] was 3.3 µM (inactive). The GI50 [25] was 3.45 µM (inactive), the GI50 [26] was 4.95 µM (inactive) and the GI50 [27] was 3.31 µM (inactive). The GI50 [28] was 2.92 µM (inactive), the GI50 [29] was 15.7 µM (inactive) and the GI50 [30] was 17 µM (inactive). The GI50 [31] was 17.1 µM (inactive), the GI50 [32] was 1.91 µM (inactive) and the GI50 [33] was 7.01 µM (inactive). For the same compound, the GI50 [34] was 6.11 µM (inactive), the GI50 [35] was 17.2 µM (inactive) and the GI50 [36] was 9.27 µM (inactive). For the same compound, the GI50 [37] was 3.94 µM (inactive), the GI50 [38] was 2.56 µM (inactive) and the GI50 [39] was 2.25 µM (inactive). The GI50 [40] was 14 µM (inactive), the GI50 [41] was 4.92 µM (inactive) and the GI50 [42] was 7.62 µM (inactive). For the same compound, the GI50 [43] was 2.08 µM (inactive), the GI50 [44] was 9.27 µM (inactive) and the GI50 [58] was 4.97 µM (inactive). For the same compound, the GI50 [45] was 15 µM (inactive), the GI50 [46] was 17.5 µM (inactive) and the GI50 [47] was 2.1 µM (inactive). The GI50 [59] was 13.9 µM (inactive), the GI50 [48] was 3.88 µM (inactive) and the GI50 [49] was 2.69 µM (inactive). The GI50 [50] was 2.21 µM (inactive), the GI50 [51] was 2.72 µM (inactive) and the GI50 [52] was 2.17 µM (inactive). For the same compound, the GI50 [53] was 2.3 µM (inactive), the GI50 [54] was 6.04 µM (inactive) and the GI50 [55] was 14.8 µM (inactive). For the same compound, the GI50 [56] was 2.1 µM (inactive).
